Tests used:
[1] = system: rabbit serum obtained by immunizing a rabbit with the SARS-CoV strain Frankfurt 1; type: binding; design: Binding of a rabbit serum to linear peptides / Binding of a rabbit serum to looped peptides / Rabbit serum linear peptides / Rabbit serum looped peptides / Binding of a rabbit serum to linear peptides of protein N of SARS-CoV Urbani (Rabbit serum linear peptides) / Binding of a rabbit serum to looped/cyclic peptides of protein N of SARS-CoV Urbani (Rabbit serum looped peptides): unit not given here
[2] = system: antibodies in sera from SARS patients (sera 1a, 1b, 2, 6, 37, 62, London, SARS-yellow, SARS-green); type: binding, human; design: Binding of serum 6 to linear peptides of protein X1 of SARS-CoV Urbani / Binding of serum 37 to linear peptides of protein X1 of SARS-CoV Urbani / Binding of serum 6 to looped/cyclic peptide (PEPSCAN-ELISA) / Binding of serum 37 to looped/cyclic peptide (PEPSCAN-ELISA) / Binding of serum 37 to looped/cyclic peptides of protein X1 of SARS-CoV Urbani / Binding of serum 6 to linear peptides of protein X2 / Binding of serum 37 to linear peptides of protein X2 / Binding of serum 37 to looped/cyclic peptides of protein X2 of SARS-CoV Urbani / Binding of serum 6 to linear peptides of protein M of SARS-CoV Urbani / Binding of serum 37 to linear peptides of protein M of SARS-CoV Urbani / Binding of serum 6 to looped/cyclic peptides of protein M of SARS-CoV Urbani / Binding of serum 37 to looped/cyclic peptides of protein M of SARS-CoV Urbani / Binding of serum 6 to linear peptides of protein X3 of SARS-CoV Urbani / Binding of serum 37 to linear peptides of protein X3 of SARS-CoV Urbani / Binding of serum 37 to looped/cyclic peptides of protein X3 of SARS-CoV Urbani / Binding of serum 6 to linear peptides of protein X4 of SARS-CoV Urbani / Binding of serum 37 to linear peptides of protein X4 of SARS-CoV Urbani / Binding of serum 37 to looped/cyclic peptides of protein X4 of SARS-CoV Urbani / Binding of serum 6 to linear peptides of protein X5 of SARS-CoV Urbani / Binding of serum 37 to linear peptides of protein X5 of SARS-CoV Urbani / Binding of serum 37 to looped/cyclic peptides of protein X5 of SARS-CoV Urbani / Binding of serum 6 to linear peptides of protein N of SARS-CoV Urbani / Binding of serum 37 to linear peptides of protein N of SARS-CoV Urbani / Binding of serum 6 to linear peptide (PEPSCAN-ELISA) / Binding of serum 1a to looped/cyclic peptides of protein N of SARS-CoV Urbani / Binding of serum 1b to looped/cyclic peptides of protein N of SARS-CoV Urbani / Binding of serum 2 to looped/cyclic peptides of protein N of SARS-CoV Urbani / Binding of serum 6 to looped/cyclic peptides of protein N of SARS-CoV Urbani / Binding of serum 37 to looped/cyclic peptides of protein N of SARS-CoV Urbani / Binding of serum 62 to looped/cyclic peptides of protein N of SARS-CoV Urbani / Binding of serum London to looped/cyclic peptides of protein N of SARS-CoV Urbani / Binding of serum SARS-green to looped/cyclic peptides of protein N of SARS-CoV Urbani: unit not given here
[3] = system: control sera (pooled serum of ten healthy LUMC hospital workers; commercial negative donor pooled serum from the Dutch bloodbank); type: binding, human; design: Binding of Control serum LUMC to linear peptides / Binding of Control serum Blood-bank to linear peptides / Binding of Control serum LUMC to looped peptides / Binding of Control Serum Blood-Bank to Looped peptides / Binding of Control serum LUMC to linear peptides of the protein M of SARS-CoV Urbani / Binding of Control serum Blood-bank to linear peptides of the protein M of SARS-CoV Urbani / Binding of Control serum LUMC to looped peptides of the protein M of SARS-CoV Urbani / Binding of Control Serum Blood-Bank to Looped peptides of the protein M of SARS-CoV Urbani: unit not given here

In the case of MAISPKFTTSLSLHK, the “Binding of a rabbit serum to linear peptides” value [1] is reported as 0.3, the “Binding of a rabbit serum to looped peptides” value [1] is reported as 0.6 and the “Binding of serum 1a to linear peptides of protein X2” value [2] is reported as 0.7. The “Binding of serum 1a to looped/cyclic peptides of protein X2 of SARS-CoV Urbani” value [2] was 0.5, the “Binding of serum 1b to linear peptides of protein X2” value [2] was 0.7 and the “Binding of serum 1b to looped/cyclic peptides of protein X2 of SARS-CoV Urbani” value [2] was 0.5. The “Binding of serum 2 to linear peptides of protein X2” value [2] was 0.7, the “Binding of serum 2 to looped/cyclic peptides of protein X2 of SARS-CoV Urbani” value [2] was 0.4 and the “Binding of serum 6 to linear peptides of protein X2” value [2] was 0.6. For the same sequence, the “Binding of serum 6 to looped/cyclic peptides of protein X2 of SARS-CoV Urbani” value [2] was 0.4, the “Binding of serum 37 to linear peptides of protein X2” value [2] was 0.7 and the “Binding of serum 37 to looped/cyclic peptides of protein X2 of SARS-CoV Urbani” value [2] was 0.4. For the same sequence, the “Binding of serum 62 to linear peptides of protein X2” value [2] was 0.7, the “Binding of serum 62 to looped/cyclic peptides of protein X2 of SARS-CoV Urbani” value [2] was 0.6 and the “Binding of serum London to linear peptides of protein X2” value [2] was 0.5. The “Binding of serum London to looped/cyclic peptides of protein X2 of SARS-CoV Urbani” value [2] was 0.2, the “Binding of serum SARS-green to linear peptides of protein X2” value [2] was 0.5 and the “Binding of serum SARS-green to looped/cyclic peptides of protein X2 of SARS-CoV Urbani” value [2] was 0.4. For the same sequence, the “Binding of serum SARS-yellow to linear peptides of protein X2” value [2] was 0.5, the “Binding of serum SARS-yellow to looped/cyclic peptides of protein X2 of SARS-CoV Urbani” value [2] was 0.5 and the “Binding of Control Serum Blood-Bank to Looped peptides” value [3] was 0.7. The “Binding of Control serum Blood-bank to linear peptides” value [3] was 1.0, the “Binding of Control serum LUMC to linear peptides” value [3] was 0.7 and the “Binding of Control serum LUMC to looped peptides” value [3] was 0.6.

In the case of MEAQFLYLYALIYFL, the “Binding of a rabbit serum to linear peptides” value [1] is reported as 0.1, the “Binding of a rabbit serum to looped peptides” value [1] is reported as 0.5 and the “Binding of serum 1a to linear peptides of protein X1 of SARS-CoV Urbani” value [2] is reported as 0.7. For the same sequence, the “Binding of serum 1a to looped/cyclic peptide (PEPSCAN-ELISA)” value [2] was 0.5, the “Binding of serum 1b to linear peptides of protein X1 of SARS-CoV Urbani” value [2] was 0.6 and the “Binding of serum 1b to looped/cyclic peptide (PEPSCAN-ELISA)” value [2] was 0.3. For the same sequence, the “Binding of serum 2 to linear peptides of protein X1 of SARS-CoV Urbani” value [2] was 0.5, the “Binding of serum 2 to looped/cyclic peptide (PEPSCAN-ELISA)” value [2] was 0.4 and the “Binding of serum 6 to linear peptides of protein X1 of SARS-CoV Urbani” value [2] was 0.4. The “Binding of serum 6 to looped/cyclic peptide (PEPSCAN-ELISA)” value [2] was 0.2, the “Binding of serum 37 to linear peptides of protein X1 of SARS-CoV Urbani” value [2] was 0.5 and the “Binding of serum 37 to looped/cyclic peptide (PEPSCAN-ELISA)” value [2] was 0.8. The “Binding of serum 62 to linear peptides of protein X1 of SARS-CoV Urbani” value [2] was 0.4, the “Binding of serum 62 to looped/cyclic peptide (PEPSCAN-ELISA)” value [2] was 0.5 and the “Binding of serum London to linear peptides of protein X1 of SARS-CoV Urbani” value [2] was 0.2. The “Binding of serum London to looped/cyclic peptide (PEPSCAN-ELISA)” value [2] was 0.2, the “Binding of serum SARS-green to linear peptides of protein X1 of SARS-CoV Urbani” value [2] was 0.0 and the “Binding of serum SARS-green to looped/cyclic peptide (PEPSCAN-ELISA)” value [2] was 0.2. For the same sequence, the “Binding of serum SARS-yellow to linear peptides of protein X1 of SARS-CoV Urbani” value [2] was 0.2, the “Binding of serum SARS-yellow to looped/cyclic peptide (PEPSCAN-ELISA)” value [2] was 0.4 and the “Binding of Control Serum Blood-Bank to Looped peptides” value [3] was 0.4. For the same sequence, the “Binding of Control serum Blood-bank to linear peptides” value [3] was 0.2, the “Binding of Control serum LUMC to linear peptides” value [3] was 0.5 and the “Binding of Control serum LUMC to looped peptides” value [3] was 0.5.

MRFFTLGSITAQPVK was tested, and the “Binding of a rabbit serum to linear peptides” value [1] was 0.4, the “Binding of a rabbit serum to looped peptides” value [1] was 0.2 and the “Binding of serum 1a to linear peptides of protein X1 of SARS-CoV Urbani” value [2] was 0.6. The “Binding of serum 1a to looped/cyclic peptide (PEPSCAN-ELISA)” value [2] was 0.3, the “Binding of serum 1b to linear peptides of protein X1 of SARS-CoV Urbani” value [2] was 0.4 and the “Binding of serum 1b to looped/cyclic peptide (PEPSCAN-ELISA)” value [2] was 0.1. The “Binding of serum 2 to linear peptides of protein X1 of SARS-CoV Urbani” value [2] was 0.4, the “Binding of serum 2 to looped/cyclic peptide (PEPSCAN-ELISA)” value [2] was 0.1 and the “Binding of serum 6 to linear peptides of protein X1 of SARS-CoV Urbani” value [2] was 0.6. The “Binding of serum 6 to looped/cyclic peptide (PEPSCAN-ELISA)” value [2] was 0.2, the “Binding of serum 37 to linear peptides of protein X1 of SARS-CoV Urbani” value [2] was 0.6 and the “Binding of serum 37 to looped/cyclic peptide (PEPSCAN-ELISA)” value [2] was 0.2. For the same sequence, the “Binding of serum 62 to linear peptides of protein X1 of SARS-CoV Urbani” value [2] was 0.4, the “Binding of serum 62 to looped/cyclic peptide (PEPSCAN-ELISA)” value [2] was 0.3 and the “Binding of serum London to linear peptides of protein X1 of SARS-CoV Urbani” value [2] was 0.5. For the same sequence, the “Binding of serum London to looped/cyclic peptide (PEPSCAN-ELISA)” value [2] was 0.2, the “Binding of serum SARS-green to linear peptides of protein X1 of SARS-CoV Urbani” value [2] was 0.2 and the “Binding of serum SARS-green to looped/cyclic peptide (PEPSCAN-ELISA)” value [2] was 0.1. For the same sequence, the “Binding of serum SARS-yellow to linear peptides of protein X1 of SARS-CoV Urbani” value [2] was 0.4, the “Binding of serum SARS-yellow to looped/cyclic peptide (PEPSCAN-ELISA)” value [2] was 0.1 and the “Binding of Control Serum Blood-Bank to Looped peptides” value [3] was 0.2. The “Binding of Control serum Blood-bank to linear peptides” value [3] was 0.4, the “Binding of Control serum LUMC to linear peptides” value [3] was 0.7 and the “Binding of Control serum LUMC to looped peptides” value [3] was 0.4.

— patent publication US20070128217A1 (priority 2003, published 2007)
